# Laboratory results from patent US10100070B2, “Borate-based base generator, and base-reactive composition comprising such base generator” (FUJIFILM Wako Pure Chemical Corporation, priority 2014, dated 2018).
# Experiments:
# [1] = Storage stability tests to a base-reactive compound; format: physicochemical; settings: 0.1 g in 2 g SR-NPG, 1 week at 40° C., viscosity change
# [2] = Solubility tests to organic solvents and a base-reactive compound
# Protocol: The case where the compounds (base generators) were dissolved into less than 1 mL of the addition amount of the organic solvents or the base-reactive compound was evaluated as [++]; the case where the compounds (base generators) were dissolved into not less than 1 mL and less than 5 mL thereof was evaluated as [+]; the case where the compounds (base generators) were dissolved into not less than 5 mL and less than 10 mL thereof was evaluated as [−]; and the case where the compounds (base generators) were dissolved only into not less than 10 mL thereof was evaluated as [−−].
# [3] = Heat resistance tests (TG-DTA); format: physicochemical; settings: 10 mg, heated from 30° C. to 500° C. at 10° C./min.
# Excerpt: Thus calculated temperature was used as decomposition initiation temperature to evaluate heat resistance of these compounds (base generators).
TG-DTA Decomposition Initiation Temperature (5% weight loss initiation temperature) [3] [°C],Compound,Storage stability in epoxy [1],other results
,"1,3-dimethyl-2-(N,N′,N″,N″-tetramethylguanidino)-4,5-dihydro-3H-imidazolium triphenyl(n-butyl)borate [Comp. Ex. 10]",−,
,tetrakis(tetramethylguanidino)phosphonium tetraphenylborate [Comp. Ex. 4],−,"Solubility in EL ([2]; 0.1 g compound, ethyl lactate added gradually at room temperature, visual): −− (dissolved only into not less than 10 mL thereof); Solubility in SR-NPG ([2]; 0.1 g compound, neopentylglycol diglycidyl ether added gradually at room temperature, visual): −− (dissolved only into not less than 10 mL thereof); Solubility in PGMEA ([2]; 0.1 g compound, propyleneglycol monomethylether acetate added gradually at room temperature, visual): −− (dissolved only into not less than 10 mL thereof); Solubility to organic solvents generally used in this field (in words) ([2]; conclusion from Table 7): poor solubility; Solubility to the base-reactive compound (in words) ([2]; conclusion from Table 7): poor solubility"
300,tetrakis(tetramethylguanidino)phosphonium p-tolylethynyl triphenylborate [Example 7],◯,
223,"1-cyclohexyl-3-(4-nitrophenyl)-4,4,5,5-tetramethylbiguanidium triphenyl(n-butyl)borate [Example 9]",◯,
280,"1,3-dimethyl-2-(N′,N′,N″,N″-tetramethylguanidino)-4,5-dihydro-3H-imidazolium triphenyl(n-butyl)borate [Example 4]",◯,

Compound,TG-DTA Decomposition Initiation Temperature (5% weight loss initiation temperature) [3] [°C],Storage stability in epoxy [1],other results
"CC(C)NC(=[N+]=C(N(C)C)N(C)C)NC(C)C.Cc1ccc(C#C[B-](c2ccccc2)(c2ccccc2)c2ccccc2)cc1 [Example 6, 1,2-diisopropyl-4,4,5,5-tetramethylbiguanidium p-tolylethynyl triphenylborate]",185,◯,
"CCCC[B-](c1ccccc1)(c1ccccc1)c1ccccc1.CN(C)C(=N[P+](N=C(N(C)C)N(C)C)(N=C(N(C)C)N(C)C)N=C(N(C)C)N(C)C)N(C)C [Example 5, tetrakis(tetramethylguanidino)phosphonium triphenyl(n-butyl)borate]",318,◯,
